Laboratory results published in ChEMBL document CHEMBL4673364, “Synthesis and cytotoxic activity of new 7-acetoxy-12-amino-14-deoxy andrographolide analogues” (Bioorg Med Chem Lett, 2021).

System: A549
Experiment: Cytotoxicity against human A549 cells assessed as reduction in cell viability by SRB assay
Assay type: functional, cell-based

Row | Structure (SMILES) | IC50
1 | C=C1[C@@H](OC(C)=O)C[C@@H]2[C@](C)(CO[Si](C)(C)C(C)(C)C)[C@H](OC(C)=O)CC[C@@]2(C)[C@@H]1C[C@@H](Nc1ccccc1)C1=CCOC1=O | 4.5 µM
2 | C=C1[C@@H](OC(C)=O)C[C@@H]2[C@](C)(CO[Si](C)(C)C(C)(C)C)[C@H](OC(C)=O)CC[C@@]2(C)[C@@H]1C/C=C1/C(=O)OC[C@H]1OC(C)=O | 4.64 µM
3 | C=C1[C@@H](OC(C)=O)C[C@@H]2[C@](C)(CO[Si](C)(C)C(C)(C)C)[C@H](OC(C)=O)CC[C@@]2(C)[C@@H]1C[C@@H](Nc1ccccc1C(=O)O)C1=CCOC1=O | 4.89 µM
4 | C=C1[C@@H](OC(C)=O)C[C@@H]2[C@](C)(CO[Si](C)(C)C(C)(C)C)[C@H](OC(C)=O)CC[C@@]2(C)[C@@H]1C[C@@H](Nc1ccc(Br)cc1)C1=CCOC1=O | 4.15 µM
5 | C=C1[C@@H](OC(C)=O)C[C@@H]2[C@](C)(CO[Si](C)(C)C(C)(C)C)[C@H](OC(C)=O)CC[C@@]2(C)[C@@H]1C[C@@H](Nc1ccc(F)cc1)C1=CCOC1=O | 4.55 µM

System: not listed separately
Experiment: Cytotoxicity against rat ASK cells assessed as reduction in cell viability by SRB assay
Assay type: functional, cell-based

Row | Structure (SMILES) | IC50
6 | C=C1[C@@H](OC(C)=O)C[C@@H]2[C@](C)(CO[Si](C)(C)C(C)(C)C)[C@H](OC(C)=O)CC[C@@]2(C)[C@@H]1C[C@@H](Nc1ccccc1)C1=CCOC1=O | 4.96 µM
7 | C=C1[C@@H](OC(C)=O)C[C@@H]2[C@](C)(CO[Si](C)(C)C(C)(C)C)[C@H](OC(C)=O)CC[C@@]2(C)[C@@H]1C/C=C1/C(=O)OC[C@H]1OC(C)=O | 4.11 µM
8 | C=C1[C@@H](OC(C)=O)C[C@@H]2[C@](C)(CO[Si](C)(C)C(C)(C)C)[C@H](OC(C)=O)CC[C@@]2(C)[C@@H]1C[C@@H](Nc1ccccc1C(=O)O)C1=CCOC1=O | 4.31 µM
9 | C=C1[C@@H](OC(C)=O)C[C@@H]2[C@](C)(CO[Si](C)(C)C(C)(C)C)[C@H](OC(C)=O)CC[C@@]2(C)[C@@H]1C[C@@H](Nc1ccc(Br)cc1)C1=CCOC1=O | 4.84 µM
10 | C=C1[C@@H](OC(C)=O)C[C@@H]2[C@](C)(CO[Si](C)(C)C(C)(C)C)[C@H](OC(C)=O)CC[C@@]2(C)[C@@H]1C[C@@H](Nc1ccc(F)cc1)C1=CCOC1=O | 4.63 µM

System: not listed separately
Experiment: Potency index, ratio of andrographolide IC50 to test compound IC50 for cytotoxicity against […] cells
Assay type: functional

Row | Structure (SMILES) | Ratio IC50
11 | C=C1[C@@H](OC(C)=O)C[C@@H]2[C@](C)(CO[Si](C)(C)C(C)(C)C)[C@H](OC(C)=O)CC[C@@]2(C)[C@@H]1C[C@@H](Nc1ccccc1)C1=CCOC1=O | 9

System: MCF7
Experiment: Potency index, ratio of andrographolide IC50 to test compound IC50 for cytotoxicity against human MCF7 cells
Assay type: functional

Row | Structure (SMILES) | Ratio IC50
12 | C=C1[C@@H](OC(C)=O)C[C@@H]2[C@](C)(CO[Si](C)(C)C(C)(C)C)[C@H](OC(C)=O)CC[C@@]2(C)[C@@H]1C[C@@H](Nc1ccccc1C(=O)O)C1=CCOC1=O | 7
13 | C=C1[C@@H](OC(C)=O)C[C@@H]2[C@](C)(CO[Si](C)(C)C(C)(C)C)[C@H](OC(C)=O)CC[C@@]2(C)[C@@H]1C[C@@H](Nc1ccc(Br)cc1)C1=CCOC1=O | 7
14 | C=C1[C@@H](OC(C)=O)C[C@@H]2[C@](C)(CO[Si](C)(C)C(C)(C)C)[C@H](OC(C)=O)CC[C@@]2(C)[C@@H]1C[C@@H](Nc1ccc(F)cc1)C1=CCOC1=O | 7

System: not listed separately
Experiment: Potency index, ratio of andrographolide IC50 to test compound IC50 for cytotoxicity against human K213 cells
Assay type: functional

Row | Structure (SMILES) | Ratio IC50
15 | C=C1[C@@H](OC(C)=O)C[C@@H]2[C@](C)(CO[Si](C)(C)C(C)(C)C)[C@H](OC(C)=O)CC[C@@]2(C)[C@@H]1C/C=C1/C(=O)OC[C@H]1OC(C)=O | 8

System: KB
Experiment: Potency index, ratio of andrographolide IC50 to test compound IC50 for cytotoxicity against human KB cells
Assay type: functional

Row | Structure (SMILES) | Ratio IC50
16 | C=C1[C@@H](OC(C)=O)C[C@@H]2[C@](C)(CO[Si](C)(C)C(C)(C)C)[C@H](OC(C)=O)CC[C@@]2(C)[C@@H]1C/C=C1/C(=O)OC[C@H]1OC(C)=O | 8

System: not listed separately
Experiment: Potency index, ratio of andrographolide IC50 to test compound IC50 for cytotoxicity against human K055 cells
Assay type: functional

Row | Structure (SMILES) | Ratio IC50
17 | C=C1[C@@H](OC(C)=O)C[C@@H]2[C@](C)(CO[Si](C)(C)C(C)(C)C)[C@H](OC(C)=O)CC[C@@]2(C)[C@@H]1C/C=C1/C(=O)OC[C@H]1OC(C)=O | 8

System: not listed separately
Experiment: Cytotoxicity against human K213 cells assessed as reduction in cell viability by SRB assay
Assay type: functional, cell-based

Row | Structure (SMILES) | IC50
18 | C=C1[C@@H](OC(C)=O)C[C@@H]2[C@](C)(CO[Si](C)(C)C(C)(C)C)[C@H](OC(C)=O)CC[C@@]2(C)[C@@H]1C[C@@H](Nc1ccccc1)C1=CCOC1=O | 5.7 µM
19 | C=C1[C@@H](OC(C)=O)C[C@@H]2[C@](C)(CO[Si](C)(C)C(C)(C)C)[C@H](OC(C)=O)CC[C@@]2(C)[C@@H]1C/C=C1/C(=O)OC[C@H]1OC(C)=O | 4.81 µM
20 | C=C1[C@@H](OC(C)=O)C[C@@H]2[C@](C)(CO[Si](C)(C)C(C)(C)C)[C@H](OC(C)=O)CC[C@@]2(C)[C@@H]1C[C@@H](Nc1ccccc1C(=O)O)C1=CCOC1=O | 5.91 µM
21 | C=C1[C@@H](OC(C)=O)C[C@@H]2[C@](C)(CO[Si](C)(C)C(C)(C)C)[C@H](OC(C)=O)CC[C@@]2(C)[C@@H]1C[C@@H](Nc1ccc(Br)cc1)C1=CCOC1=O | 5.44 µM
22 | C=C1[C@@H](OC(C)=O)C[C@@H]2[C@](C)(CO[Si](C)(C)C(C)(C)C)[C@H](OC(C)=O)CC[C@@]2(C)[C@@H]1C[C@@H](Nc1ccc(F)cc1)C1=CCOC1=O | 5.25 µM

System: not listed separately
Experiment: Cytotoxicity against human K055 cells assessed as reduction in cell viability by SRB assay
Assay type: functional, cell-based

Row | Structure (SMILES) | IC50
23 | C=C1[C@@H](OC(C)=O)C[C@@H]2[C@](C)(CO[Si](C)(C)C(C)(C)C)[C@H](OC(C)=O)CC[C@@]2(C)[C@@H]1C[C@@H](Nc1ccccc1)C1=CCOC1=O | 4.43 µM
24 | C=C1[C@@H](OC(C)=O)C[C@@H]2[C@](C)(CO[Si](C)(C)C(C)(C)C)[C@H](OC(C)=O)CC[C@@]2(C)[C@@H]1C/C=C1/C(=O)OC[C@H]1OC(C)=O | 4.43 µM
25 | C=C1[C@@H](OC(C)=O)C[C@@H]2[C@](C)(CO[Si](C)(C)C(C)(C)C)[C@H](OC(C)=O)CC[C@@]2(C)[C@@H]1C[C@@H](Nc1ccccc1C(=O)O)C1=CCOC1=O | 5.64 µM
26 | C=C1[C@@H](OC(C)=O)C[C@@H]2[C@](C)(CO[Si](C)(C)C(C)(C)C)[C@H](OC(C)=O)CC[C@@]2(C)[C@@H]1C[C@@H](Nc1ccc(Br)cc1)C1=CCOC1=O | 5.34 µM
27 | C=C1[C@@H](OC(C)=O)C[C@@H]2[C@](C)(CO[Si](C)(C)C(C)(C)C)[C@H](OC(C)=O)CC[C@@]2(C)[C@@H]1C[C@@H](Nc1ccc(F)cc1)C1=CCOC1=O | 5.43 µM

System: MCF7
Experiment: Cytotoxicity against human MCF7 cells assessed as reduction in cell viability by SRB assay
Assay type: functional, cell-based

Row | Structure (SMILES) | IC50
28 | C=C1[C@@H](OC(C)=O)C[C@@H]2[C@](C)(CO[Si](C)(C)C(C)(C)C)[C@H](OC(C)=O)CC[C@@]2(C)[C@@H]1C[C@@H](Nc1ccccc1)C1=CCOC1=O | 4.84 µM
29 | C=C1[C@@H](OC(C)=O)C[C@@H]2[C@](C)(CO[Si](C)(C)C(C)(C)C)[C@H](OC(C)=O)CC[C@@]2(C)[C@@H]1C/C=C1/C(=O)OC[C@H]1OC(C)=O | 4.54 µM
30 | C=C1[C@@H](OC(C)=O)C[C@@H]2[C@](C)(CO[Si](C)(C)C(C)(C)C)[C@H](OC(C)=O)CC[C@@]2(C)[C@@H]1C[C@@H](Nc1ccccc1C(=O)O)C1=CCOC1=O | 4.46 µM
31 | C=C1[C@@H](OC(C)=O)C[C@@H]2[C@](C)(CO[Si](C)(C)C(C)(C)C)[C@H](OC(C)=O)CC[C@@]2(C)[C@@H]1C[C@@H](Nc1ccc(Br)cc1)C1=CCOC1=O | 3.92 µM
32 | C=C1[C@@H](OC(C)=O)C[C@@H]2[C@](C)(CO[Si](C)(C)C(C)(C)C)[C@H](OC(C)=O)CC[C@@]2(C)[C@@H]1C[C@@H](Nc1ccc(F)cc1)C1=CCOC1=O | 4.34 µM

System: KB
Experiment: Cytotoxicity against human KB cells assessed as reduction in cell viability by SRB assay
Assay type: functional, cell-based

Row | Structure (SMILES) | IC50
33 | C=C1[C@@H](OC(C)=O)C[C@@H]2[C@](C)(CO[Si](C)(C)C(C)(C)C)[C@H](OC(C)=O)CC[C@@]2(C)[C@@H]1C[C@@H](Nc1ccccc1)C1=CCOC1=O | 5.71 µM
34 | C=C1[C@@H](OC(C)=O)C[C@@H]2[C@](C)(CO[Si](C)(C)C(C)(C)C)[C@H](OC(C)=O)CC[C@@]2(C)[C@@H]1C/C=C1/C(=O)OC[C@H]1OC(C)=O | 5.02 µM
35 | C=C1[C@@H](OC(C)=O)C[C@@H]2[C@](C)(CO[Si](C)(C)C(C)(C)C)[C@H](OC(C)=O)CC[C@@]2(C)[C@@H]1C[C@@H](Nc1ccccc1C(=O)O)C1=CCOC1=O | 6.05 µM
36 | C=C1[C@@H](OC(C)=O)C[C@@H]2[C@](C)(CO[Si](C)(C)C(C)(C)C)[C@H](OC(C)=O)CC[C@@]2(C)[C@@H]1C[C@@H](Nc1ccc(Br)cc1)C1=CCOC1=O | 5.23 µM
37 | C=C1[C@@H](OC(C)=O)C[C@@H]2[C@](C)(CO[Si](C)(C)C(C)(C)C)[C@H](OC(C)=O)CC[C@@]2(C)[C@@H]1C[C@@H](Nc1ccc(F)cc1)C1=CCOC1=O | 5.09 µM

System: HT-29
Experiment: Cytotoxicity against human HT-29 cells assessed as reduction in cell viability by SRB assay
Assay type: functional, cell-based

Row | Structure (SMILES) | IC50
38 | C=C1[C@@H](OC(C)=O)C[C@@H]2[C@](C)(CO[Si](C)(C)C(C)(C)C)[C@H](OC(C)=O)CC[C@@]2(C)[C@@H]1C[C@@H](Nc1ccccc1)C1=CCOC1=O | 4.05 µM
39 | C=C1[C@@H](OC(C)=O)C[C@@H]2[C@](C)(CO[Si](C)(C)C(C)(C)C)[C@H](OC(C)=O)CC[C@@]2(C)[C@@H]1C/C=C1/C(=O)OC[C@H]1OC(C)=O | 4.94 µM
40 | C=C1[C@@H](OC(C)=O)C[C@@H]2[C@](C)(CO[Si](C)(C)C(C)(C)C)[C@H](OC(C)=O)CC[C@@]2(C)[C@@H]1C[C@@H](Nc1ccccc1C(=O)O)C1=CCOC1=O | 5.34 µM
41 | C=C1[C@@H](OC(C)=O)C[C@@H]2[C@](C)(CO[Si](C)(C)C(C)(C)C)[C@H](OC(C)=O)CC[C@@]2(C)[C@@H]1C[C@@H](Nc1ccc(Br)cc1)C1=CCOC1=O | 4.59 µM
42 | C=C1[C@@H](OC(C)=O)C[C@@H]2[C@](C)(CO[Si](C)(C)C(C)(C)C)[C@H](OC(C)=O)CC[C@@]2(C)[C@@H]1C[C@@H](Nc1ccc(F)cc1)C1=CCOC1=O | 4.94 µM

System: not listed separately
Experiment: Cytotoxicity against human P388 cells assessed as reduction in cell viability by SRB assay
Assay type: functional, cell-based

Row | Structure (SMILES) | IC50
43 | C=C1[C@@H](OC(C)=O)C[C@@H]2[C@](C)(CO[Si](C)(C)C(C)(C)C)[C@H](OC(C)=O)CC[C@@]2(C)[C@@H]1C[C@@H](Nc1ccccc1)C1=CCOC1=O | 4.4 µM
44 | C=C1[C@@H](OC(C)=O)C[C@@H]2[C@](C)(CO[Si](C)(C)C(C)(C)C)[C@H](OC(C)=O)CC[C@@]2(C)[C@@H]1C/C=C1/C(=O)OC[C@H]1OC(C)=O | 0.43 µM
45 | C=C1[C@@H](OC(C)=O)C[C@@H]2[C@](C)(CO[Si](C)(C)C(C)(C)C)[C@H](OC(C)=O)CC[C@@]2(C)[C@@H]1C[C@@H](Nc1ccccc1C(=O)O)C1=CCOC1=O | 4.31 µM
46 | C=C1[C@@H](OC(C)=O)C[C@@H]2[C@](C)(CO[Si](C)(C)C(C)(C)C)[C@H](OC(C)=O)CC[C@@]2(C)[C@@H]1C[C@@H](Nc1ccc(Br)cc1)C1=CCOC1=O | 4.19 µM
47 | C=C1[C@@H](OC(C)=O)C[C@@H]2[C@](C)(CO[Si](C)(C)C(C)(C)C)[C@H](OC(C)=O)CC[C@@]2(C)[C@@H]1C[C@@H](Nc1ccc(F)cc1)C1=CCOC1=O | 4 µM
